Measurements taken from ChEMBL document CHEMBL3763143, “Novel morpholine scaffolds as selective dopamine (DA) D3 receptor antagonists” (Bioorg Med Chem Lett, 2016).

Tests used:
[1] = target: T1, D(3) dopamine receptor (Homo sapiens, UniProt P35462); experiment: Agonist activity at human dopamine D3 receptor expressed in CHO cells after 90 mins by [35S]-GTPgamma S assay; format: cell-based
[2] = target: D(3) dopamine receptor (Rattus norvegicus, UniProt P19020)
Description: Displacement of [125I]-7-OH-PIPAT from rat brain dopamine D3 receptor after 45 mins by microplate scintillation counting analysis

[3] = target: T1, D(3) dopamine receptor; experiment: Antagonist activity at human dopamine D3 receptor expressed in CHO cells after 90 mins by [35S]-GTPgamma S assay; format: cell-based
[4] = target: Voltage-gated inwardly rectifying potassium channel KCNH2 (Homo sapiens, UniProt Q12809); experiment: Displacement of [3H]-dofetilide from human ERG potassium channel by scintillation proximity assay
Chain of Voltage-gated inwardly rectifying potassium channel KCNH2 (Q12809 whole entry): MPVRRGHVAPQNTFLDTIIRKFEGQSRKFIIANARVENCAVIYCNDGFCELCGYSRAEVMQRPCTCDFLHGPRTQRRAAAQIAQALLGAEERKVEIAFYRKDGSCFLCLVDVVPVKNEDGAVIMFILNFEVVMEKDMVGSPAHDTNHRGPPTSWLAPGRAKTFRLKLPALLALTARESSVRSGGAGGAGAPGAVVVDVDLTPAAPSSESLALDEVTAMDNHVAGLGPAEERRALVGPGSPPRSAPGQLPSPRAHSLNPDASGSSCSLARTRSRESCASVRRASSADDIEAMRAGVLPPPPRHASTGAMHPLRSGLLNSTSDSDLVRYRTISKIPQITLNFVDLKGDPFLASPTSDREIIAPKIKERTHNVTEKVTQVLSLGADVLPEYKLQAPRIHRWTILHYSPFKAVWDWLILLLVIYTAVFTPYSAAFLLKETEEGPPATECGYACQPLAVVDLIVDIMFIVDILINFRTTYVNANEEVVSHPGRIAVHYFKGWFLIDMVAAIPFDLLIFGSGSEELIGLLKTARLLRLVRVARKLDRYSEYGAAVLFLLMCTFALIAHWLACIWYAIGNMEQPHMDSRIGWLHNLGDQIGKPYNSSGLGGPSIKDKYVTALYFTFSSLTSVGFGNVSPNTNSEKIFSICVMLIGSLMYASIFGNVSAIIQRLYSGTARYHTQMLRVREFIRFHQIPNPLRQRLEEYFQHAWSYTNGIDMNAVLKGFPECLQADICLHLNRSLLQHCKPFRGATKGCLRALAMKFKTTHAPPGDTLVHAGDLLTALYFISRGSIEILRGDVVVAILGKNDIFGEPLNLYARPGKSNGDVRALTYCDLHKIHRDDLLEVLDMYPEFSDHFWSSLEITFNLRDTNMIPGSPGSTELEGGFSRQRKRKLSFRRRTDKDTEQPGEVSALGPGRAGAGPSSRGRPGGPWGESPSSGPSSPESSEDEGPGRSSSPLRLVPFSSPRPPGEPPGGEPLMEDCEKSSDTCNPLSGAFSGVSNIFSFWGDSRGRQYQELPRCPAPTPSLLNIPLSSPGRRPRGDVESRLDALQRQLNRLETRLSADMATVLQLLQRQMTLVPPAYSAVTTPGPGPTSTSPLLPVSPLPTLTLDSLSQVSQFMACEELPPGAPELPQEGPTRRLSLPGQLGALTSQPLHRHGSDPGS

[5] = target: Dopamine receptor D2 and D3 (Rattus norvegicus) (UniProt P19020+P61169); experiment: Selectivity ratio of Ki for rat brain dopamine D2 receptor to Ki for rat brain dopamine D3 receptor
Chain of Dopamine receptor D2 and D3 (Rattus norvegicus) (P19020 whole entry, looked up): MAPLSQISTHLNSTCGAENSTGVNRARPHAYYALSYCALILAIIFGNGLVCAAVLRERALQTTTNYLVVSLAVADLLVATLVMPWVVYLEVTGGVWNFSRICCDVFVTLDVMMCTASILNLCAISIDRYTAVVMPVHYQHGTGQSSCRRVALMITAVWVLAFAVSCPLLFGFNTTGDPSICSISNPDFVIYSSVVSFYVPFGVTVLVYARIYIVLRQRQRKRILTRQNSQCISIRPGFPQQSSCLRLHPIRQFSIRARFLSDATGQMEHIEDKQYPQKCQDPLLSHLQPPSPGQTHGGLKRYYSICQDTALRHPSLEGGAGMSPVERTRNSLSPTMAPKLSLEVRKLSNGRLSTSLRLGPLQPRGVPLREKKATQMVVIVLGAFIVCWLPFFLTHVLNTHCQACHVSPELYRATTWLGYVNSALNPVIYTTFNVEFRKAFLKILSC
Chain of Dopamine receptor D2 and D3 (Rattus norvegicus) (P61169 whole entry, looked up): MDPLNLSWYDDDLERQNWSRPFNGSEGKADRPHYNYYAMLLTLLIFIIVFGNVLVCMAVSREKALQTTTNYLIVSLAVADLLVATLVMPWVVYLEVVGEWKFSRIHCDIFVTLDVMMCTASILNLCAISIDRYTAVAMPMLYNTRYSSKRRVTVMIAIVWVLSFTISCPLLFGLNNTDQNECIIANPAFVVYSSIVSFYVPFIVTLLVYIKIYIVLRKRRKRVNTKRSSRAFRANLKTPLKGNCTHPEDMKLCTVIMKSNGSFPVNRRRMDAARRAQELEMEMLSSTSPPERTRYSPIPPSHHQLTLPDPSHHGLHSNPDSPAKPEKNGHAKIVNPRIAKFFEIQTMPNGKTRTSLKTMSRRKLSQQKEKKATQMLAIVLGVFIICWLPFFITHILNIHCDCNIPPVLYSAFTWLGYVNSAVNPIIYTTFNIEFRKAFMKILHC

Chain of D(3) dopamine receptor (Rattus norvegicus, UniProt P19020) (P19020 whole entry): as the sequence (P19020 whole entry, looked up) above
T1 sequence (P35462 whole entry): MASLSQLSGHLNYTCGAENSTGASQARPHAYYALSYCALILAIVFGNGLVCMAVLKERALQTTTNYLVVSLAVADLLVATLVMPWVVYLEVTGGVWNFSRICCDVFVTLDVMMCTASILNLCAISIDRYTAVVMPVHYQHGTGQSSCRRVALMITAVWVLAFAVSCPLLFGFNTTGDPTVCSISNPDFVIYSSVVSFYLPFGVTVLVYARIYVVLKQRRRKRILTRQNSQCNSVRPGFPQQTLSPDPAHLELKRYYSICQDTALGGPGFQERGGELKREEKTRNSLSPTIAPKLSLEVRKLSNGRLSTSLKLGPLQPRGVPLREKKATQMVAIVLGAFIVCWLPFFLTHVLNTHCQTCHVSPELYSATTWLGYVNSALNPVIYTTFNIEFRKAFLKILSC

Row | SMILES | Ki [1] [nM] | Ki [2] [nM] | Ki [3] [nM] | Ratio Ki [5] | Ki [4] [nM]
1 | Cc1ncoc1-c1nnc(SCCCN2CCOC(c3ccc(C(F)(F)F)cc3)C2)n1C (racemic) | – | 126 | – | – | –
2 | Cn1c(SCCCN2CCOC(c3ccc(C(F)(F)F)cc3F)C2)nnc1-c1ccc(C(N)=O)cc1 (racemic) | > 10000 | 63.1 | 39.8 | – | –
3 | Cn1c(SCCCN2CCOC(c3ccc(C(F)(F)F)cc3)C2)nnc1-c1cccnc1 (racemic) | > 10000 | 251 | – | – | –
4 | Cn1c(SCCCN2CCOC(c3ccc(C(F)(F)F)cc3)C2)nnc1-c1ccc(C#N)cc1 (racemic) | > 10000 | 100 | – | – | –
5 | Cn1cccc1-c1nnc(SCCCN2CCOC(c3ccc(C(F)(F)F)cc3)C2)n1C (racemic) | > 10000 | 126 | – | – | –
6 | Cn1c(SCCCN2CCOC(c3ccc(C(F)(F)F)cc3)C2)nnc1-c1ccc(S(N)(=O)=O)cc1 (racemic) | > 10000 | 126 | – | – | –
7 | Cc1ncoc1-c1nnc(SCCCN2CCOC(c3ccc(Br)cc3)C2)n1C (racemic) | > 10000 | 200 | – | – | –

Further lines, with some results ahead:

Row | Ki [1] [nM] | Ki [2] [nM] | Ki [3] [nM] | Ratio Ki [5] | SMILES | Ki [4] [nM]
8 | > 10000 | 100 | – | – | Cn1c(SCCCN2CCOC(c3ccc(C(F)(F)F)cc3)C2)nnc1-c1ccncc1 (racemic) | –
9 | > 10000 | 79.4 | 25.1 | – | Cc1ncoc1-c1nnc(SCCCCN2CCOC(c3ccc(C(F)(F)F)cc3)C2)n1C (racemic) | –
10 | > 10000 | 5.01 | 10 | – | Cn1c(SCCCN2CCOC(c3ccc(C(F)(F)F)cc3)C2)nnc1-c1ccc(-c2ncco2)cc1 (racemic) | 1000
11 | > 10000 | 100 | – | – | Cn1c(SCCCN2CCOC(c3ccc(C(F)(F)F)cc3)C2)nnc1-c1ccsc1 (racemic) | –
12 | > 10000 | 316 | – | – | Cn1c(SCCCN2CCOC(c3ccc(C(F)(F)F)cc3)C2)nnc1-c1cccc(C(N)=O)c1 (racemic) | –
13 | > 10000 | 39.8 | 20 | 200 | Cn1c(SCCCN2CCOC(c3ccc(C(F)(F)F)cc3)C2)nnc1C1CCCCC1 (racemic) | –
14 | > 10000 | 79.4 | 15.8 | – | Cc1ccc(C2CN(CCCSc3nnc(-c4ccc(-c5noc(C)n5)cc4)n3C)CCO2)cc1 (racemic) | 1000
15 | > 10000 | 631 | – | – | Cn1cncc1-c1nnc(SCCCN2CCOC(c3ccc(C(F)(F)F)cc3)C2)n1C (racemic) | –
16 | > 10000 | 31.6 | 15.8 | – | Cn1c(SCCCN2CCOC(c3ccc(C(F)(F)F)cc3)C2)nnc1-c1ccc(C(N)=O)nc1 (racemic) | 2000
17 | > 10000 | 200 | – | – | Cc1ncoc1-c1nnc(SCCCN2CCOC(c3ccc(C(F)(F)F)cc3F)C2)n1C (racemic) | –
